Experimental data taken from publication PMC6282105 (Molecular Pharmaceutics, 2018).

How the values were obtained:
nitroreductase (NTR) = molecular target: T1, nitroreductase (NTR) (Escherichia coli, UniProt P38489); assay: NTR-mediated removal of the CNBz moiety, followed by analytical HPLC; format: biochemical; conditions: 0.3 equiv NTR, NADH as cofactor, analytical HPLC (Figure S2)
T1 sequence (P38489 1-217): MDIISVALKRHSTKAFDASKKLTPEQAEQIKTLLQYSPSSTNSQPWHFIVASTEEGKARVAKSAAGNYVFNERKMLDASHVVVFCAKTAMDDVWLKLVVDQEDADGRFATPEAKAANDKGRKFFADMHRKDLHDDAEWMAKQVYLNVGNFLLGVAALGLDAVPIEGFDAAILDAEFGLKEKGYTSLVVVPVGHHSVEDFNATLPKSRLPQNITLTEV

[1] = Stability of the building block toward SPPS reagents; format: physicochemical; conditions: SPPS conditions

O=C(NCCCC(NC(=O)OCC1c2ccccc2-c2ccccc21)C(=O)O)NC(=O)OCc1ccc([N+](=O)[O-])cc1 (centres unmarked) [compound 1, 14-(9H-fluoren-9-yl)-1-(4-nitrophenyl)-3,5,12-trioxo-2,13-dioxa-4,6,11-triazatetradecane-10-carboxylic acid]
time to full removal of the CNBz moiety (nitroreductase (NTR)): ≤ 5 min | stability toward 20% piperidine and TFA [1]: very stable
